Literature values as cited in US20110053889A1, “Prenatal and postnatal screening and treatment of critical monosaccharide deficiencies for neurologic and immunologic function” (priority 2008, published 2011).
Read-outs that look alike come from different tables or passages of the source.

What was measured:
[1] = for Estimated Safe Daily Dose (mg) in 68 kg human: 68 kg human (Gardiner, 2004); for Estimated Safe Daily Dose: based on ADME and safety data and margin-of-safety (Gardiner, 2004)
[2] = patient with LAD II (Marquardt et al., 1999)
[3] = oral 50-100 mg/kg body weight, healthy volunteers (Marquardt et al., 1999)
[4] = ingested (Martin et al., 1998)
[5] = radiolabeled injection (Martin et al., 1998)
E. coli [6] = details: topical solution applied to maternal vaginas prior to delivery; control 77% (Cox and Taylor, 1990)
E. coli [7] = details: injected, rats (Michaels et al., 1983)
[8] = oral 0.07-0.21 g/kg body weight, humans (Alton et al., 1997)
[9] = rats
[10] = oral single doses (Alton et al., 1997)
[11] = oral 1 gram, humans (Talent and Gracy, 1996)

**Q.** Which results are given for `C[C@H](O)[C@@H](O)[C@@H](O)[C@H](O)C=O` [Fucose, L-fucose]?
**A.** Estimated Safe Daily Dose (mg) in 68 kg human [1]: 34,000 mg; Estimated Safe Daily Dose [1]: 500 mg/kg/day; clinical outcome of oral supplementation [2]: clinical disappearance of infections and fever; clearance half-time [3]: 100 min; time to peak serum fucose concentration [3]: 1 h

**Q.** Which “Estimated Safe Daily Dose (mg) in 68 kg human” value (“Estimated Safe Daily Dose (mg)” for short) [1] does the source give for `O=C[C@H](O)[C@@H](O)[C@@H](O)[C@H](O)CO` [Galactose, D-galactose] here?
**A.** 50,000 mg

**Q.** And the “Estimated Safe Daily Dose” value [1]?
**A.** 735 mg/kg/day

**Q.** For `N[C@H]1C(O)O[C@H](CO)[C@@H](O)[C@@H]1O` (stereo partly shown) [Glucosamine, glucosamine], which “fraction of the dose oxidized” value [4] is on record?
**A.** about one-half

**Q.** And the “protein-bound radioactivity in the form of sialic acid” value [5]?
**A.** 25-30%

**Q.** With `O=C[C@H](O)[C@@H](O)[C@H](O)[C@H](O)CO` [Glucose, D-glucose] as the molecule, how does the “Estimated Safe Daily Dose (mg)” value [1] read?
**A.** 150,000 mg

**Q.** And the “Estimated Safe Daily Dose” value [1]?
**A.** 2,200 mg/kg/d

**Q.** For `O=C[C@@H](O)[C@@H](O)[C@H](O)[C@H](O)CO` [Mannose, mannose], which “Estimated Safe Daily Dose (mg)” value [1] is on record?
**A.** 53,000 mg

**Q.** And the “Estimated Safe Daily Dose” value [1]?
**A.** 779 mg/kg/day

**Q.** And the “E. coli bacteremia in newborns” value (E. coli [6])?
**A.** 25%

**Q.** And the “time to reduction of E. coli bacteriuria” value (E. coli [7])?
**A.** ≤ 1 days

**Q.** What about the clearance half-time [8] of the same molecule?
**A.** about 4 hours

**Q.** What about the “time to peak blood mannose concentration” value [8] of the same molecule?
**A.** approximately 90 minutes

**Q.** What about the “increase of glycoprotein incorporation in organs” value ([9]; at 1-8 hours) of the same molecule?
**A.** 2- to 6 fold

**Q.** What about the “time to absorption into the serum” value ([9]; oral, radiolabeled) of the same molecule?
**A.** ≤ 1 h

**Q.** What about the “single dose that induces osmotic diarrhea” value [10] of the same molecule?
**A.** > 200 mg/kg body wt

**Q.** Which “Estimated Safe Daily Dose (mg)” value [1] does the source give for `CC(=O)N[C@H]1C(O)O[C@H](CO)[C@@H](O)[C@@H]1O` (stereo partly shown) [N-acetylglucosamine] here?
**A.** 1,000 mg

**Q.** And the “Estimated Safe Daily Dose” value [1]?
**A.** 15 mg/kg/day

**Q.** And the “time to significant rise in serum levels of GlcNAc” value [11]?
**A.** ≤ 1 h

**Q.** With `CC(=O)N[C@H]1[C@H]([C@H](O)[C@H](O)CO)OC(O)(C(=O)O)C[C@@H]1O` (stereo partly shown) [Sialic Acid, N-acetylneuraminic acid] as the molecule, how does the “Estimated Safe Daily Dose (mg)” value [1] read?
**A.** 140 mg

**Q.** And the “Estimated Safe Daily Dose” value [1]?
**A.** 2 mg/kg/day
